One test concerns corneodesmosin. As to the kind of experiment: Corneodesmosin protein expression by immunoblotting, normalized to β-actin. Type of test: cell-based. Particulars: human primary keratinocytes, immunoblot. From the text:
Using a high throughput screening of small molecule libraries, utilizing green fluorescent protein (GFP) base reporter system and western blot analysis for validation of the results, it has now been found, in accordance with the present invention, that betulinic acid (which is already used as topical treatment on human skin, and capable of penetrating into the skin and be active in the epidermis while showing excellent safty profile) is capable of boosting corneodesmosin biosynthesis, and when administered to keratinocytes, it increases corneodesmosin expression by more than 3-fold (FIGS. 1-2), and may thus be used as an inducer of corneodesmosin expression in patients suffering from skin diseases or disorders associated with accelerated corneodesmosomes degradation and/or weaker cell-cell adhesion.
Corneodesmosin protein levels were quantified and normalized to β-actin protein levels and presented as corneodesmosin fold expression relative to normal keratinocytes treated with DMSO. […] The other compounds shown in the figure are 5-aminolevulinic acid hydrochloride (5-ALA; #1), piperlongumine (#2), thiostrepton (#3), obatoclax mesylate (GX15-070; #5), BI 2536 (CAS No.: 755038-02-9; #6), PHA-665752 (CAS No.: 477575-56-7 (anhydrous; #7), YH239-EE (CAS No.: 1364488-67-4; #8), PF-562271 (CAS No.: 717907-75-0; #9), and BI-D1870 (CAS No.: 501437-28-1; #10).
(In western blotting, separated proteins are transferred to a membrane and probed.)

The test system of a further test is CDSN. Briefly: CDSN expression at the mRNA level in keratinocytes. The class given is cell-based.

In the case of `C=C(C)[C@@H]1CC[C@]2(C(=O)O)CC[C@]3(C)[C@H](CC[C@@H]4[C@@]5(C)CC[C@H](O)C(C)(C)[C@@H]5CC[C@]43C)[C@@H]12` [betulinic acid], the “corneodesmosin fold expression relative to normal keratinocytes treated with DMSO” value in the test on corneodesmosin is “more than 3 fold”. Besides, the “CDSN expression at the mRNA level relative to DMSO-treated normal keratinocytes” value in the test on CDSN came out at 2 fold.

(Values after US20220226348A1, “METHOD AND COMPOSITION FOR TREATMENT OF SKIN DISEASES ASSOCIATED WITH ACCELERATED CORNEODESMOSOMES DEGRADATION OR WEAKER CELL-CELL ADHESION” (ICHILOV TECH LTD, priority 2019, published 2022).)
